Measurements published in US6291467A, “Heteroaromatic derivatives” (priority 2000, dated 2001).
Structures can show the parent of a compound that is named as a salt.

What was measured:
Dopamine D2 Receptor = Dopamine D2 Receptor (Rattus norvegicus, UniProt P61169); test: Dopamine D2 Receptor Binding Assay (displacement of [^3 H]raclopride); conditions: rat striatum membrane, [^3 H]raclopride (1 nM), 25° C., an hour
Procedure: 2. Dopamine D2 Receptor Binding Assay
Rat striatum membrane was used as a receptor preparation.
[^3 H]raclopride was used as [^3 H]-labeled ligand.
A binding reaction using the [^3 H]-labeled ligand was carried out according to the following method as described in Mol. J. Pharmacol., 43, 749(1993).
Preparation of Receptor Preparation: Rat striatum was homogenized in 50 mM Tris-hydrochloric acid buffer (pH 7.4), centrifuged at 48,000×g, and the precipitate was washed once with a Tris-hydrochloric acid buffer. The precipitate was suspended in 50 mM Tris-hydrochloric acid buffer (pH 7.4) containing 120 mM NaCl, 1.5 mM KCl, 2 mM CaCl2 and 1 mM MgCl2 to give a membrane preparation.
Dopamine D2 Receptor Binding Assay: The membrane preparation (0.5 mg of protein/ml), [^3 H]raclopride (1 nM) and each test drug were reacted at 25° C. for an hour.
After completion of the reaction, the reaction solution was filtered by suction through a glass filter (GF/B), and the radioactivity on the filter was determined by a liquid scintillation spectrometer.
The binding under the reaction in the presence of 10 μM haloperidol was defined as non-specific binding of [^3 H]raclopride, and the difference between total binding and non-specific binding was defined as specific binding.

human D4.2 receptor = target: T1, human D4.2 receptor (Homo sapiens, UniProt P21917, DEL265-296); test: Dopamine D4 Receptor Binding Assay (displacement of [^3 H]spiperone); conditions: human D4.2 in CHO cell membranes, pH 7.4, 27° C., 2 hours
T1 sequence (P21917 with tags, fused parts or gaps DEL265-296): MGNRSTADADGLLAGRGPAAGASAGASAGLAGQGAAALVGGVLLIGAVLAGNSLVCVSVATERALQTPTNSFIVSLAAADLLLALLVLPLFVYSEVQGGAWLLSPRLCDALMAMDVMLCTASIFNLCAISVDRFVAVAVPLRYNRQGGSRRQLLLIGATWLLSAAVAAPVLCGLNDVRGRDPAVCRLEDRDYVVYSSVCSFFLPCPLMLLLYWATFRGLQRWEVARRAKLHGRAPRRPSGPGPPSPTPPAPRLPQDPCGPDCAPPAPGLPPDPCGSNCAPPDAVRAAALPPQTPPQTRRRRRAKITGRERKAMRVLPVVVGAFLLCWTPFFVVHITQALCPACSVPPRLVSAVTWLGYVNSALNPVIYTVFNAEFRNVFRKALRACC
Procedure: 1. Dopamine D4 Receptor Binding Assay
Chinese hamster ovarium (CHO) cell membranes wherein human D4.2 receptor was expressed were used as a receptor preparation.
[^3 H]spiperone was used as [^3 H]-labeled ligand.
A binding reaction using the [^3 H]-labeled ligand was carried out according to the following method as described in Eur. J. Pharmacol., 233, 173(1993).
Dopamine D4.2 Receptor Binding Assay: The CHO cell membranes wherein human D4.2 receptor was expressed, [^3 H]spiperone ([…]) and each test drug were reacted in 50 mM Tris-hydrochloric acid buffer (pH 7.4) containing 5 mM EDTA, 1.5 mM CaCl2, 5 mM KCl and 120 mM NaCl at 27° C. for 2 hours.
After completion of the reaction, the reaction solution was filtered by suction through a glass filter (GF/B), and the radioactivity on the filter was measured by a liquid scintillation spectrometer.
The binding under the reaction in the presence of 10 μM haloperidol was defined as non-specific binding of [^3 H]spiperone, and the difference between the total binding and the non-specific binding was defined as specific binding.

[1] = test system: drug-resistant schizophrenia and negativism; conditions: clinical investigation, Arch. Gen. Psych., 45, 789-796 (1988); cited from earlier work
[2] = Summary and Clinical Data, Sandoz, Canada Inc. (1990); cited from earlier work
dopamine D4 receptors = conditions: Nature, 350, 610-614 (1991); cited from earlier work

Dopamine D2 Receptor, sequence (P61169 whole entry): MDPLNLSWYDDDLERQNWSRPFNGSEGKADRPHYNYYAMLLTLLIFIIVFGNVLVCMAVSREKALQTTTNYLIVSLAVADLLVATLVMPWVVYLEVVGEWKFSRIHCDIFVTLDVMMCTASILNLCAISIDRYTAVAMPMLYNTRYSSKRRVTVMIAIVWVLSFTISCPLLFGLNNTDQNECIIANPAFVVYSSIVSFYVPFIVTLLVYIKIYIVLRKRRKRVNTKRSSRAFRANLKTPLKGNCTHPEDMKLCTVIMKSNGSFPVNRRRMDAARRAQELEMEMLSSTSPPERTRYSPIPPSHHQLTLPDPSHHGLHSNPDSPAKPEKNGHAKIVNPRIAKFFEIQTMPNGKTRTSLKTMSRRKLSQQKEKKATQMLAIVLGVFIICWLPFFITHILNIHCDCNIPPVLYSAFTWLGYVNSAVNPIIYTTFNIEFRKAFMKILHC

| Compound | IC50 (Dopamine D2 Receptor) [nM] | IC50 (human D4.2 receptor) [nM] | also measured |
| --- | --- | --- | --- |
| Fc1ccc(C=C2CCN(CCc3cn[nH]c3-c3ccc(F)cc3)CC2)cc1 [Compound A-01] | 152 | 1.23 |  |
| Cc1ccc(C=C2CCN(CCc3cn[nH]c3-c3ccc(F)cc3)CC2)cc1 [Compound A-06] | 171 | 2.85 |  |
| O=C(c1ccc(F)cc1)C1CCN(CCc2sc(O)nc2-c2ccc(F)cc2)CC1 [Compound A-09] | 107 | 2.85 |  |
| Oc1nc(-c2ccc(F)cc2)c(CCN2CCC(=Cc3cccc(F)c3)CC2)s1 [Compound A-10, 2-hydroxy-4-(4-fluorophenyl)-5-[2-[4-(3-fluorobenzylidene)piperidin-1-yl]ethyl]thiazole] | 73.9 | 1.96 |  |
| Fc1ccc(-c2ncncc2CCN2CCC(=Cc3ccccc3F)CC2)cc1 [Compound A-12, 4-(4-fluorophenyl)-5-[2-[4-(2-fluorobenzylidene)piperidin-1-yl]ethyl]pyrimidine dihydrochloride] | 359 | 2.15 |  |
| Fc1ccc(-c2nc(S)ncc2CCN2CCC(=Cc3ccccc3F)CC2)cc1 [Compound A-13, 4-(4-fluorophenyl)-5-[2-[4-(2-fluorobenzylidene)piperidin-1-yl]ethyl]-2-mercaptopyrimidine] | > 1000 | 1.35 |  |
| Nc1ncc(CCN2CCC(=Cc3ccccc3F)CC2)c(-c2ccc(F)cc2)n1 [Compound A-16] | 129 | 1.96 |  |
| CN1CCN(C2=Nc3cc(Cl)ccc3Nc3ccccc32)CC1 [clozapine] |  |  | effect on drug-resistant schizophrenia and negativism [1]: effective on drug-resistant schizophrenia and negativism; extrapyramidal diseases [1]: hardly causes extrapyramidal diseases; blood disorder (agranulocytosis) [2]: serious defect of causing blood disorder called agranulocytosis; death from agranulocytosis [2]: cases of death therefrom have been reported; affinity for dopamine D4 receptors relative to dopamine D2 receptors (dopamine D4 receptors): higher than that for dopamine D2 receptors |

Further compounds by falling IC50 (Dopamine D2 Receptor), results first:

| IC50 (Dopamine D2 Receptor) [nM] | IC50 (human D4.2 receptor) [nM] | Compound | also measured |
| --- | --- | --- | --- |
| 61.4 | 1.12 | CSc1nc(-c2ccc(F)cc2)c(CCN2CCC(=Cc3cccc(F)c3)CC2)[nH]1 [Compound A-08] |  |
| 55.9 | 1.96 | Cc1ccc(-c2[nH]ncc2CCN2CCC(=Cc3ccc(F)cc3)CC2)cc1 [Compound A-04] |  |
| 32 | 1.12 | Fc1ccc(-c2[nH]ncc2CCN2CCC(=Cc3cccc(F)c3)CC2)cc1 [Compound A-02] |  |
| 26.6 | 0.85 | Fc1ccc(-c2[nH]ncc2CCN2CCC(=Cc3ccccc3F)CC2)cc1 [Compound A-03, 5-(4-fluorophenyl)-4-[2-[4-(2-fluorobenzylidene)piperidin-1-yl]ethyl]pyrazole oxalate] |  |
